# Measurements from patent US20030153552A1, “Method of treating chemical dependency in mammals and a composition therefor” (priority 2002, published 2003).
# Assay: plasma concentration of ibogaine and its metabolite 12-hydroxy ibogamine over time after ibogaine administration to a human patient
# Format: in vivo
# Experimental: An amount of ibogaine was administered to a human patient, and the plasma concentration of both ibogaine and a metabolite thereof, 12-hydroxy ibogamine, were observed as a function of time.
# FIG. 1 illustrates the result of administering a certain dosage of ibogaine to a human patient, where the plasma concentration of ibogaine is measured over time. In essence, a peak plasma concentration of about 1,100 ng/ml is observed at administration. It is also notable that at about 11 hours after ibogaine administration, plasma concentration of ibogaine diminished to less than 400 ng/ml. After about 24 hours, plasma concentration diminished to less than 200 ng/ml. Thus, ibogaine is rather quickly eliminated by the patient.
# By contrast, FIG. 2 illustrates the variation of noribogaine plasma concentration with time as a metabolite from the same ibogaine administration described above. In essence, a peak plasma concentration of noribogaine of about 590 ng/ml was reached only after about 11 hours from administration. Thereafter, even at 24 hours, a plasma concentration of greater than 500 ng/ml was observed.
Compound,"peak plasma concentration of ibogaine (after ibogaine administration, (FIG. 1))","concentration at 24 h (plasma, after about 24 hours (FIG. 1))","concentration at 11 h (plasma, at about 11 hours after ibogaine administration (FIG. 1))",plasma half-life compared with ibogaine (after ibogaine administration),"plasma concentration of noribogaine (at 24 hours, noribogaine as metabolite from ibogaine administration (FIG. 2))","time to peak plasma concentration of noribogaine (from ibogaine administration, noribogaine as metabolite (FIG. 2))",peak plasma concentration of noribogaine (noribogaine as metabolite from ibogaine administration (FIG. 2))
"CC[C@H]1C[C@H]2C[C@H]3c4[nH]c5ccc(OC)cc5c4CCN(C2)C13 [ibogaine, reference compound]","about 1,100 ng/ml",< 200 ng/mL,< 400 ng/mL,,,,
"CC[C@H]1C[C@H]2C[C@H]3c4[nH]c5ccc(O)cc5c4CCN(C2)[C@@H]13 [noribogaine, 12-hydroxy ibogamine]",,,,much longer plasma half-life than ibogaine,greater than 500 ng/ml,about 11 hours,about 590 ng/ml
